Measured values reported in PubChem BioAssay (NCI).
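Each compound was tested at five concentrations against cells in 96-well plates for 48 hours. GI50: concentration for 50% inhibition of growth. TGI marks complete inhibition of growth.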

What was measured:
Experiment in all cases: NCI-60 cell line screen, 48 h
ACHN renal = tested on: ACHN renal
MALME-3M melanoma = tested on: MALME-3M melanoma
NCI-H226 lung = tested on: NCI-H226 lung
OVCAR-4 ovarian = tested on: OVCAR-4 ovarian
SF-268 CNS = tested on: SF-268 CNS
SK-MEL-28 melanoma = tested on: SK-MEL-28 melanoma
SNB-19 CNS = tested on: SNB-19 CNS
TK-10 renal = tested on: TK-10 renal
UACC-257 melanoma = tested on: UACC-257 melanoma
UO-31 renal = tested on: UO-31 renal

SMILES	TGI (ACHN renal)	TGI (MALME-3M melanoma)	TGI (NCI-H226 lung)	TGI (OVCAR-4 ovarian)	TGI (SF-268 CNS)	TGI (SK-MEL-28 melanoma)	TGI (SNB-19 CNS)	TGI (TK-10 renal)	TGI (UACC-257 melanoma)	TGI (UO-31 renal)	GI50 (MALME-3M melanoma)	GI50 (NCI-H226 lung)	GI50 (OVCAR-4 ovarian)	GI50 (SF-268 CNS)	GI50 (SK-MEL-28 melanoma)	GI50 (SNB-19 CNS)	GI50 (TK-10 renal)	GI50 (UACC-257 melanoma)	GI50 (UO-31 renal)	GI50 (ACHN renal)
Nc1c(-c2cn(Cc3ccccc3)c3ccccc23)[n+]([O-])c2ccccc2[n+]1[O-]	> 100 µM	> 100 µM	36.5 µM	> 100 µM	> 100 µM	91.8 µM	> 100 µM	> 100 µM	35.5 µM	38.8 µM										
CCN(CC)CCNc1ccc(C)c2sc3cc(Cl)ccc3c(=O)c12		3.61 µM	3.58 µM	5.13 µM	3.37 µM	3.52 µM	3.51 µM	3.77 µM	3.42 µM	2.69 µM	1.84 µM	1.74 µM	1.95 µM	1.68 µM	1.91 µM	1.74 µM	2.2 µM	1.92 µM	1.32 µM	
CCOC(=O)C1=C(C)N=c2s/c(=C\c3ccccc3O)c(=O)n2C1c1ccc(OC)c2ccccc12 (stereo not drawn)	8.87 µM	19 µM	32.4 µM	5.18 µM	25.5 µM	76.4 µM	67.9 µM	23.3 µM	> 100 µM	33.1 µM	4.14 µM	12.6 µM	2.01 µM	6.23 µM	15.5 µM	13.8 µM	11 µM	31.8 µM	15.6 µM	3.03 µM
COC(=O)[C@@H](C)C[C@H](Cc1cn(C)c2ccccc12)NC(=O)c1csc([C@@H](C[C@H](C(C)C)N(C)C(=O)[C@@H](NC(=O)[C@H]2CCCCN2C)C(C)C)OC(C)=O)n1	> 16.7 µM		> 12 µM	> 16.7 µM	> 16.7 µM	> 16.7 µM	> 16.7 µM	> 16.7 µM	> 16.7 µM	> 16.7 µM		0.0983 µM	0.575 µM	0.0272 µM	> 4.36 µM	0.00883 µM	2.77 µM	> 16.7 µM	0.169 µM	0.153 µM
C=CC(=O)NCCSCCCOC1(C(=O)O)CC(O)C(NC(C)=O)C(C(O)C(O)CO)O1 (stereo not drawn)	> 100 µM	> 100 µM	> 100 µM	> 100 µM		> 100 µM	> 100 µM	> 100 µM	> 100 µM	> 100 µM										
Nc1cc(F)ccc1CC(=O)O	> 100 µM	> 100 µM	> 100 µM		> 100 µM	> 100 µM	> 100 µM	> 100 µM	> 100 µM	> 100 µM										
O=C(c1ccco1)c1nc2cc(C(F)(F)F)ccc2nc1C(F)(F)F	> 100 µM	> 100 µM		> 100 µM	> 100 µM	> 100 µM	> 100 µM	> 100 µM	> 100 µM	> 100 µM	> 100 µM		56.4 µM	> 100 µM	> 100 µM	> 100 µM	> 100 µM	> 100 µM	> 100 µM	> 100 µM
COc1ccc2c(c1)[n+]([O-])c(-c1ccc([N+](=O)[O-])cc1)c(N)[n+]2[O-]	> 100 µM	> 100 µM	> 100 µM	> 100 µM	> 100 µM	> 100 µM	> 100 µM		> 100 µM	> 100 µM										
O=C1c2[nH]cc(CNC3CN4CCC3CC4)c2C(=O)c2c1c(O)c1ccccc1c2O (stereo not drawn)	8.04 µM	7.14 µM	41.4 µM	55.7 µM	68.4 µM	34.2 µM	12.4 µM	1.19 µM	> 76.3 µM	21.4 µM	2.78 µM	16.3 µM	16.3 µM	12.6 µM	13 µM	2.92 µM	0.266 µM	31.7 µM	3.66 µM	2.6 µM
CC[C@H]1CN2CCc3cc(OC)c(OC)cc3C2C[C@@H]1CC1NCCc2cc(OC)c(OC)cc21 (stereo partly drawn)	1.42 µM	0.222 µM	0.194 µM	0.0481 µM		0.119 µM		0.572 µM	0.258 µM											
CCC(CC)c1nc(Nc2ccc(C(=O)OC)cc2)c2ccccc2n1	18.1 µM		22.8 µM	18.6 µM	19.1 µM	15.3 µM	15.2 µM	25.7 µM	20 µM	15.4 µM		7.93 µM	7.45 µM	6.69 µM	7.1 µM	8.07 µM	13.2 µM	9.73 µM	7.94 µM	8.1 µM
COc1ccc(OC(C)=O)c2c1CCC=CC2=O	32 µM	44.1 µM	33.7 µM	36.1 µM		28.6 µM	31.4 µM	32.2 µM	31.8 µM	30.9 µM										
C=C=C(C(=O)OC)S(=O)c1ccccc1[N+](=O)[O-] (stereo not drawn)	> 100 µM	> 100 µM	> 100 µM	> 100 µM	> 100 µM		> 100 µM	> 100 µM	> 100 µM	> 100 µM										
COC(=O)C(Cc1nc2ccccc2[nH]c1=O)/C(=N\NC(C)(C)C)C(=O)Nc1c(C)cc(Br)cc1C (stereo not drawn)	> 100 µM	62.2 µM	54.4 µM	> 100 µM	77.7 µM	51.8 µM	> 100 µM		> 100 µM	> 100 µM										
CCOC(=O)c1ccc(Nc2sc(C(=O)c3ccc(Br)cc3)c(N)c2C#N)cc1	> 100 µM	> 100 µM	> 100 µM	> 100 µM	> 100 µM	> 100 µM	> 100 µM		> 100 µM	> 100 µM	3.66 µM	19.2 µM		2.56 µM	4.81 µM	7.18 µM		6.19 µM	1.93 µM	3.24 µM
O=C1CC(c2c(-c3ccccc3)[nH]c3ccccc23)C(=O)N1 (stereo not drawn)	> 100 µM	> 100 µM	> 100 µM	> 100 µM		> 100 µM		> 100 µM	> 100 µM	> 100 µM										
